Test results published in patent publication US7399638B2, “Prediction method for lipidosis” (Takeda Pharmaceutical Company Limited, priority 2003, dated 2008).
Read-outs that look alike come from different tables or passages of the source. Marks after values point to notes of the source that are not given here.

Assays:
Crj: CD(SD)IGS rats [1] = experiment: Urinary PAG/hippuric acid ratio by 1H NMR in rats; conditions: rat urine; for PAG + hippuric acid/creatinine / PAG/PAG + hippuric acid / PAG/creatinine (first term of PAG + hippuric acid) / PAG/hippuric acid / hippuric acid/creatinine (second term of PAG + hippuric acid): 3 days, mean n = 3-4
Description: During the urine pooling, the collecting vessels were kept in an ice-cooled condition. After the urine collection, the urine was centrifuged at 1500×g for 10 minutes, and not less than 1 mL of the supernatant was collected and stored under freezing (below −70° C.) in a microtube in an ultralow-temperature freezer until the measurement. For the negative control group, 24-hour pooled urine was collected under ice cooling; after the urine collection, the urine was stored at −30° C. until the measurement.
Crj: CD(SD)IGS rats [2] = conditions: rat, gavage once daily for 3 days; printed on the line of the lowest dose, dose group unclear
Description: Each test drug was administered by gavage at a dosing liquid volume of 10 mL/kg/day once daily for 3 days (4 days for the negative control). The animals were examined for mortality, general conditions, body weight, food consumption and the like using PM4800 (Mettler) and EB3200D (Shimadzu Corporation).
Crj: CD(SD)IGS rats [3] = conditions: rat, in vivo
Description: (§1) The following 10 kinds of commercially available drugs were examined as the test compounds for a potential of inducing PLsis by histopathological examination and peripheral blood lymphocyte testing.
(§2) The following experiments were performed using the prematurely autopsied animals.
(§3) The high-dose dosing suspension was diluted about 3 fold and 10 fold with dispersant/solvent to prepare intermediate- and low-dose dosing suspensions. […] [For LD50, the Summary Basis of Approval (FDA) for each drug was referenced to.]
(§4) The animals were examined for mortality, general conditions, body weight, food consumption and the like using PM4800 (Mettler) and EB3200D (Shimadzu Corporation).

Crj: CD(SD)IGS rats [4] = conditions: male, rat, in vivo, 3 days
Description: as §1, §2, §3, §4
Hematological examination was performed for parameters such as RBC count, hematocrit, hemoglobin concentration, mean corpuscular hemoglobin (MCH), mean corpuscular hemoglobin concentration (MCHC), mean corpuscular volume (MCV), platelet count, WBC count, reticulocyte count, differential WBC, and vacuolated lymphocyte ratio (for PLsis-inducing compounds only) using ADVIA120 (Bayer Medical Ltd.) and E-4000 (Sysmex Corporation).

[5] = from Summary Basis of Approval (FDA); species and route not given; cited from earlier work

NC12CC3CC(CC(C3)C1)C2 [Amantadine]
PAG + hippuric acid/creatinine (Crj: CD(SD)IGS rats [1]; 75 mg/kg/day by gavage): 1.44 | PAG/PAG + hippuric acid (Crj: CD(SD)IGS rats [1]; 75 mg/kg/day by gavage): 16.17% | PAG/creatinine (first term of PAG + hippuric acid) (Crj: CD(SD)IGS rats [1]; 75 mg/kg/day by gavage): 0.23 | PAG/hippuric acid (Crj: CD(SD)IGS rats [1]; 75 mg/kg/day by gavage): 19.31% | PAG + hippuric acid/creatinine (Crj: CD(SD)IGS rats [1]; 250 mg/kg/day by gavage): 1.21 | PAG/PAG + hippuric acid (Crj: CD(SD)IGS rats [1]; 250 mg/kg/day by gavage): 16.18% | PAG/creatinine (first term of PAG + hippuric acid) (Crj: CD(SD)IGS rats [1]; 250 mg/kg/day by gavage): 0.20 | PAG/hippuric acid (Crj: CD(SD)IGS rats [1]; 250 mg/kg/day by gavage): 19.69% | hippuric acid/creatinine (second term of PAG + hippuric acid) (Crj: CD(SD)IGS rats [1]; 250 mg/kg/day by gavage): 1.02 | PAG + hippuric acid/creatinine (Crj: CD(SD)IGS rats [1]; 750 mg/kg/day by gavage): 0.37 | PAG/PAG + hippuric acid (Crj: CD(SD)IGS rats [1]; 750 mg/kg/day by gavage): 56.58% | PAG/creatinine (first term of PAG + hippuric acid) (Crj: CD(SD)IGS rats [1]; 750 mg/kg/day by gavage): 0.21 | PAG/hippuric acid (Crj: CD(SD)IGS rats [1]; 750 mg/kg/day by gavage): 130.33% | hippuric acid/creatinine (second term of PAG + hippuric acid) (Crj: CD(SD)IGS rats [1]; 750 mg/kg/day by gavage): 0.16 | death (note beside the dose) (Crj: CD(SD)IGS rats [2]): (death)

CN(C)CCCN1c2ccccc2Sc2ccc(Cl)cc21 [Chlorpromazine, chlorpromazine]
PAG + hippuric acid/creatinine (Crj: CD(SD)IGS rats [1]; 100 mg/kg/day by gavage): 1.45 | PAG/PAG + hippuric acid (Crj: CD(SD)IGS rats [1]; 100 mg/kg/day by gavage): 12.80% | PAG/creatinine (first term of PAG + hippuric acid) (Crj: CD(SD)IGS rats [1]; 100 mg/kg/day by gavage): 0.18 | PAG/hippuric acid (Crj: CD(SD)IGS rats [1]; 100 mg/kg/day by gavage): 14.93% | hippuric acid/creatinine (second term of PAG + hippuric acid) (Crj: CD(SD)IGS rats [1]; 100 mg/kg/day by gavage): 1.27 | PAG + hippuric acid/creatinine (Crj: CD(SD)IGS rats [1]; 300 mg/kg/day by gavage): 1.63 | PAG/PAG + hippuric acid (Crj: CD(SD)IGS rats [1]; 300 mg/kg/day by gavage): 12.57% | PAG/creatinine (first term of PAG + hippuric acid) (Crj: CD(SD)IGS rats [1]; 300 mg/kg/day by gavage): 0.21 | PAG/hippuric acid (Crj: CD(SD)IGS rats [1]; 300 mg/kg/day by gavage): 14.51% | PAG + hippuric acid/creatinine (Crj: CD(SD)IGS rats [1]; 1000 mg/kg/day by gavage): 0.86* | PAG/PAG + hippuric acid (Crj: CD(SD)IGS rats [1]; 1000 mg/kg/day by gavage): 42.20* % | PAG/creatinine (first term of PAG + hippuric acid) (Crj: CD(SD)IGS rats [1]; 1000 mg/kg/day by gavage): 0.30 | PAG/hippuric acid (Crj: CD(SD)IGS rats [1]; 1000 mg/kg/day by gavage): 104.13* % | hippuric acid/creatinine (second term of PAG + hippuric acid) (Crj: CD(SD)IGS rats [1]; 1000 mg/kg/day by gavage): 0.56 | PAG/hippuric acid ratio or PAG/(PAG+hippuric acid) ratio (Crj: CD(SD)IGS rats [1]; high-dose administration group, 3-day administration): remarkable increase | PLsis positivity by histopathological examination or vacuolated lymphocyte testing (Crj: CD(SD)IGS rats [3]): could not be determined | Histopathological changes (PLsis): Liver (Crj: CD(SD)IGS rats [3]; 100 mg/kg/day): − | Histopathological changes (PLsis): Lung (Crj: CD(SD)IGS rats [3]; 100 mg/kg/day): − | Histopathological changes (PLsis): Lymph node (Crj: CD(SD)IGS rats [3]; 100 mg/kg/day): − | Histopathological changes (PLsis): Others (Crj: CD(SD)IGS rats [3]; 100 mg/kg/day): − | Histopathological changes (PLsis): Spleen (Crj: CD(SD)IGS rats [3]; 100 mg/kg/day): − | Histopathological changes (PLsis): Liver (Crj: CD(SD)IGS rats [3]; 300 mg/kg/day): − | Histopathological changes (PLsis): Lung (Crj: CD(SD)IGS rats [3]; 300 mg/kg/day): − | Histopathological changes (PLsis): Lymph node (Crj: CD(SD)IGS rats [3]; 300 mg/kg/day): − | Histopathological changes (PLsis): Others (Crj: CD(SD)IGS rats [3]; 300 mg/kg/day): − | Histopathological changes (PLsis): Spleen (Crj: CD(SD)IGS rats [3]; 300 mg/kg/day): − | Histopathological changes (PLsis): Liver (Crj: CD(SD)IGS rats [3]; 1000 mg/kg/day): − | Histopathological changes (PLsis): Lung (Crj: CD(SD)IGS rats [3]; 1000 mg/kg/day): − | Histopathological changes (PLsis): Lymph node (Crj: CD(SD)IGS rats [3]; 1000 mg/kg/day): − | Histopathological changes (PLsis): Others (Crj: CD(SD)IGS rats [3]; 1000 mg/kg/day): − | Histopathological changes (PLsis): Spleen (Crj: CD(SD)IGS rats [3]; 1000 mg/kg/day): − | Mean vacuolated lymphocyte ratio (Crj: CD(SD)IGS rats [4]; 100 mg/kg/day): 2% | Mean vacuolated lymphocyte ratio (Crj: CD(SD)IGS rats [4]; 300 mg/kg/day): 2% | Mean vacuolated lymphocyte ratio (Crj: CD(SD)IGS rats [4]; 1000 mg/kg/day): 1% | LD50 [5]: 145 mg/kg
